Converted amounts (≈) assume the structure as drawn.
Key:
Pseudomonas aeruginosa = experiment: Antibacterial activity against Pseudomonas aeruginosa ATCC 27853 assessed as reduction in bacterial growth incubated for 16 to 18 hrs by broth microdilution method; format: functional; details: time 16-18 hrs
[1] = Cytotoxicity against African green monkey Vero cells after 72 hrs by MTT assay; format: toxicity, cell-based; details: chlorocebus sabaeus
[2] = Selectivity index, ratio of CC50 for African green monkey Vero cells to MIC for Staphylococcus aureus ATCC 29213; format: toxicity; details: read-out: Selectivity Index
Escherichia coli = experiment: Antibacterial activity against Escherichia coli ATCC 25922 assessed as reduction in bacterial growth incubated for 16 to 18 hrs in presence of PMBN by broth microdilution method; format: functional; details: time 16-18 hrs
Acinetobacter baumannii = experiment: Antibacterial activity against Acinetobacter baumannii BAA 1605 assessed as reduction in bacterial growth incubated for 16 to 18 hrs in presence of PMBN by broth microdilution method; format: functional; details: time 16-18 hrs
Staphylococcus aureus [3] = experiment: Antibacterial activity against methicillin/tetracycline resistant Staphylococcus aureus NRS 100 assessed as reduction in bacterial growth incubated for 16 to 18 hrs by broth microdilution method; format: functional; details: time 16-18 hrs
Staphylococcus aureus [4] = experiment: Antibacterial activity against gentamycin/linezolid/methicillin/trimeth/sulfa resistant Staphylococcus aureus NRS 119 assessed as reduction in bacterial growth incubated for 16 to 18 hrs by broth microdilution method; format: functional; details: time 16-18 hrs
Staphylococcus aureus [5] = experiment: Antibacterial activity against methicillin/meropenem/levoflaxacin resistant Staphylococcus aureus NRS 198 assessed as reduction in bacterial growth incubated for 16 to 18 hrs by broth microdilution method; format: functional; details: time 16-18 hrs
Staphylococcus aureus [6] = experiment: Antibacterial activity against methicillin/meropenem resistant Staphylococcus aureus NRS 194 assessed as reduction in bacterial growth incubated for 16 to 18 hrs by broth microdilution method; format: functional; details: time 16-18 hrs
Staphylococcus aureus [7] = experiment: Antibacterial activity against methicillin/levoflaxacin/vancomycin/meropenem/gentamycin/spectinomycin/teicoplanin resistant Staphylococcus aureus VRS 1 assessed as reduction in bacterial growth incubated for 16 to 18 hrs by broth microdilution method; format: functional; details: time 16-18 hrs
Staphylococcus aureus [8] = experiment: Antibacterial activity against methicillin/levoflaxacin/vancomycin/meropenem/gentamycin/spectinomycin/teicoplanin resistant Staphylococcus aureus VRS 12 assessed as reduction in bacterial growth incubated for 16 to 18 hrs by broth microdilution method; format: functional; details: time 16-18 hrs
Enterococcus [9] = experiment: Antibacterial activity against vancomycin/methicillin/levoflaxacin/minocycline resistant Enterococcus NR 31903 assessed as reduction in bacterial growth incubated for 16 to 18 hrs by broth microdilution method; format: functional; details: time 16-18 hrs
Enterococcus [10] = experiment: Antibacterial activity against vancomycin/methicillin/levoflaxacin/minocycline resistant Enterococcus NR 31909 assessed as reduction in bacterial growth incubated for 16 to 18 hrs by broth microdilution method; format: functional; details: time 16-18 hrs
Enterococcus [11] = experiment: Antibacterial activity against vancomycin/methicillin/levoflaxacin/minocycline resistant Enterococcus NR 31912 assessed as reduction in bacterial growth incubated for 16 to 18 hrs by broth microdilution method; format: functional; details: time 16-18 hrs
Staphylococcus aureus [12] = experiment: Bactericidal activity against Staphylococcus aureus ATCC 29213 assessed as reduction in log10 CFU at 1 time MIC after 1 hr by time kill assay; format: functional
Staphylococcus aureus [13] = experiment: Antibiofilm activity against Staphylococcus aureus ATCC 29213 assessed as reduction in preformed bacterial biofilm mass at 1 time MIC incubated for 24 hrs by crystal violet staining based microtiter plate reader assay; format: functional; set-up: scale not given: the % may be the effect or the level left
Staphylococcus aureus [14] = experiment: Synergistic antibacterial activity against Staphylococcus aureus ATCC 29213 assessed as reduction in bacterial growth incubated for 24 hrs in presence of gentamycin by checkerboard method; format: functional
Staphylococcus aureus [15] = experiment: Synergistic antibacterial activity against Staphylococcus aureus ATCC 29213 assessed as reduction in bacterial growth incubated for 24 hrs in presence of daptomycin by checkerboard method; format: functional
Staphylococcus aureus [16] = experiment: Synergistic antibacterial activity against Staphylococcus aureus ATCC 29213 assessed as reduction in bacterial growth incubated for 24 hrs in presence of ceftazidime by checkerboard method; format: functional
Staphylococcus aureus [17] = experiment: Synergistic antibacterial activity against Staphylococcus aureus ATCC 29213 assessed as reduction in bacterial growth incubated for 24 hrs in presence of meropenem by checkerboard method; format: functional
Staphylococcus aureus [18] = experiment: Post antibiotic effect against Staphylococcus aureus ATCC 29213 assessed as time required for 1 log10 increase in CFU at 1 time MIC incubated for 1 hr followed by replacement with drug free medium and measured every 1 hr (reference value: 2 hrs); format: functional
Staphylococcus aureus [19] = experiment: Bactericidal activity against Staphylococcus aureus ATCC 29213 assessed as decrease in intracellular ATP level after 1 hr by ATP bioluminescence assay; format: functional, organism-based; details: DDE = dose-dependent effect
Staphylococcus aureus [20] = experiment: Antibacterial activity against Staphylococcus aureus ATCC 29213 infected in Swiss mouse skin infection model assessed as reduction in skin bacterial load at 1 % dose administered twice daily for 4 days; format: functional; details: time 4 day
Staphylococcus aureus [21] = experiment: Synergistic antibacterial activity against Staphylococcus aureus ATCC 29213 assessed as fractional inhibitory concentration incubated for 24 hrs in presence of linezolid by checkerboard method; format: functional
Staphylococcus aureus [22] = experiment: Synergistic antibacterial activity against Staphylococcus aureus ATCC 29213 assessed as fractional inhibitory concentration incubated for 24 hrs in presence of ceftazidime by checkerboard method; format: functional
Staphylococcus aureus [23] = experiment: Synergistic antibacterial activity against Staphylococcus aureus ATCC 29213 assessed as fractional inhibitory concentration incubated for 24 hrs in presence of meropenem by checkerboard method; format: functional
Staphylococcus aureus [24] = experiment: Synergistic antibacterial activity against Staphylococcus aureus ATCC 29213 assessed as fractional inhibitory concentration incubated for 24 hrs in presence of minocycline by checkerboard method; format: functional
Staphylococcus aureus [25] = experiment: Synergistic antibacterial activity against Staphylococcus aureus ATCC 29213 assessed as fractional inhibitory concentration incubated for 24 hrs in presence of rifampicin by checkerboard method; format: functional
Staphylococcus aureus [26] = experiment: Synergistic antibacterial activity against Staphylococcus aureus ATCC 29213 assessed as fractional inhibitory concentration incubated for 24 hrs in presence of vancomycin by checkerboard method; format: functional

Question: For `COc1cc2oc(-c3ccc(O)cc3O)c(CC=C(C)C)c(=O)c2c(O)c1/C=C/C(C)C` [ARTOCARPIN], which MIC (Pseudomonas aeruginosa) is on record?
Answer: The MIC was greater than 128 µg/mL.

Question: What about the CC50 at 72 h [1] of the same compound?
Answer: The CC50 at 72 h was 80 µg/mL (≈ 183 µM).

Question: And the selectivity ratio [2]?
Answer: Its selectivity ratio is 40.

Question: What about the MIC (Escherichia coli) of the same compound?
Answer: Its MIC is 8 µg/mL.

Question: And the MIC (Acinetobacter baumannii)?
Answer: The MIC was 4 µg/mL.

Question: And the MIC (Staphylococcus aureus [3])?
Answer: The MIC was 4 µg/mL (≈ 9.16 µM).

Question: And the MIC (Staphylococcus aureus [4])?
Answer: The MIC was 4 µg/mL (≈ 9.16 µM).

Question: What about the MIC (Staphylococcus aureus [5]) of the same compound?
Answer: Its MIC is 2 µg/mL (≈ 4.58 µM).

Question: What about the MIC (Staphylococcus aureus [6]) of the same compound?
Answer: Its MIC is 4 µg/mL (≈ 9.16 µM).

Question: And the MIC (Staphylococcus aureus [7])?
Answer: The MIC was 4 µg/mL (≈ 9.16 µM).

Question: And the MIC (Staphylococcus aureus [8])?
Answer: Its MIC is 4 µg/mL (≈ 9.16 µM).

Question: And the MIC (Enterococcus [9])?
Answer: Its MIC is 2 µg/mL (≈ 4.58 µM).

Question: What about the MIC (Enterococcus [10]) of the same compound?
Answer: Its MIC is 1 µg/mL (≈ 2.29 µM).

Question: What about the MIC (Enterococcus [11]) of the same compound?
Answer: Its MIC is 2 µg/mL (≈ 4.58 µM).

Question: What about the Activity (Staphylococcus aureus [12]) of the same compound?
Answer: The Activity was 3.6 log10CFU/ml.

Question: What about the Activity (Staphylococcus aureus [13]) of the same compound?
Answer: Its Activity is 34%.

Question: What about the MIC (Staphylococcus aureus [14]) of the same compound?
Answer: The MIC was 0.06 µg/mL.

Question: What about the MIC (Staphylococcus aureus [15]) of the same compound?
Answer: The MIC was 1 µg/mL.

Question: What about the MIC (Staphylococcus aureus [16]) of the same compound?
Answer: The MIC was 2 µg/mL.

Question: What about the MIC (Staphylococcus aureus [17]) of the same compound?
Answer: Its MIC is 2 µg/mL.

Question: And the Time (Staphylococcus aureus [18])?
Answer: Its Time is 5 h.

Question: What about the Activity (Staphylococcus aureus [19]) of the same compound?
Answer: Its Activity is “Dde”.

Question: What about the Activity (Staphylococcus aureus [20]) of the same compound?
Answer: Its Activity is 1 log10CFU/g.

Question: What about the FIC (Staphylococcus aureus [21]) of the same compound?
Answer: Its FIC is 0.25.

Question: And the FIC (Staphylococcus aureus [22])?
Answer: Its FIC is 0.5.

Question: And the FIC (Staphylococcus aureus [23])?
Answer: Its FIC is 0.5.

Question: And the FIC (Staphylococcus aureus [24])?
Answer: Its FIC is 0.25.

Question: What about the FIC (Staphylococcus aureus [25]) of the same compound?
Answer: The FIC was 0.5.

Question: What about the FIC (Staphylococcus aureus [26]) of the same compound?
Answer: Its FIC is 0.5.
